Source: US20150315188A1, “COMPOUNDS AND METHODS FOR TREATMENT OF HYPERTENSION” (MEDIVATION TECHNOLOGIES, INC., priority 2012, published 2015)

Key:
Parameters in all cases: purchased Milipore (Millipore)
[1] = molecular target: T1, Human adrenergic α2B receptor (Homo sapiens, UniProt P18089); assay: Radioligand binding, adrenergic α2B (Protocol Group B); conditions: Protocol Group B; for inhibition at 0.01 µM / Percentage inhibition of ligand binding, Adrenergic α2B (10 nM): 10 nM compound; for inhibition at 0.01 µM: read-out: Percentage inhibition of ligand binding, Adrenergic α2B (10 nM); for Percentage inhibition of ligand binding, Adrenergic α2B (30 nM) / inhibition at 0.03 µM: 30 nM compound; for Percentage inhibition of ligand binding, Adrenergic α2B (30 nM): 0.03 µM; for Percentage inhibition of ligand binding, Adrenergic α2B (0.1 μM) / inhibition at 0.1 µM: 0.1 μM compound; for inhibition at 0.03 µM: read-out: Percentage inhibition of ligand binding, Adrenergic α2B (30 nM); for inhibition at 0.1 µM: read-out: Percentage inhibition of ligand binding, Adrenergic α2B (0.1 μM); for Percentage inhibition of ligand binding, Adrenergic α2B (10 nM): 0.01 µM
T1 sequence (P18089 1-450): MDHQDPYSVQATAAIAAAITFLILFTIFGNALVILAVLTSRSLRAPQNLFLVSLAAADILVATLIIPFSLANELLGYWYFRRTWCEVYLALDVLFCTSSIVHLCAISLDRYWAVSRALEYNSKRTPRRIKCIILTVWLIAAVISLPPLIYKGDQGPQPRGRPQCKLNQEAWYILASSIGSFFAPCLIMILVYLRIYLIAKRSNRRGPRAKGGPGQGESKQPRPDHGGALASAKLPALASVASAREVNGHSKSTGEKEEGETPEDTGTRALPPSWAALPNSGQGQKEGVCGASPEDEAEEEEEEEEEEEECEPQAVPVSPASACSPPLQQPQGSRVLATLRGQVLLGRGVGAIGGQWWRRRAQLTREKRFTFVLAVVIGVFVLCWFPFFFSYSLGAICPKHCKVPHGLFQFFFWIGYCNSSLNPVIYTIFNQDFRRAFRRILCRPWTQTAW
Procedure, shortened: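 Recombinant human α2B receptor membranes incubated with compounds in 50 mM Tris-HCl pH 7.4, 5 mM MgCl2, 1 mM CaCl2, 0.2% BSA, 1% DMSO vehicle. Non-specific binding defined with 10 μM rauwolscine. Values are percent inhibition of specific binding or estimated Ki.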

[2] = molecular target: T2, Human adrenergic α2A receptor (Homo sapiens, UniProt P08913); assay: Radioligand binding, adrenergic α2A (Protocol Group B); conditions: Protocol Group B; for Percentage inhibition of ligand binding, Adrenergic α2A (0.1 μM) / inhibition at 0.1 µM: 0.1 μM compound; for Percentage inhibition of ligand binding, Adrenergic α2A (0.3 μM) / inhibition at 0.3 µM: 0.3 μM compound; for inhibition at 0.3 µM: read-out: Percentage inhibition of ligand binding, Adrenergic α2A (0.3 μM); for inhibition at 0.1 µM: read-out: Percentage inhibition of ligand binding, Adrenergic α2A (0.1 μM)
T2 sequence (P08913 1-465): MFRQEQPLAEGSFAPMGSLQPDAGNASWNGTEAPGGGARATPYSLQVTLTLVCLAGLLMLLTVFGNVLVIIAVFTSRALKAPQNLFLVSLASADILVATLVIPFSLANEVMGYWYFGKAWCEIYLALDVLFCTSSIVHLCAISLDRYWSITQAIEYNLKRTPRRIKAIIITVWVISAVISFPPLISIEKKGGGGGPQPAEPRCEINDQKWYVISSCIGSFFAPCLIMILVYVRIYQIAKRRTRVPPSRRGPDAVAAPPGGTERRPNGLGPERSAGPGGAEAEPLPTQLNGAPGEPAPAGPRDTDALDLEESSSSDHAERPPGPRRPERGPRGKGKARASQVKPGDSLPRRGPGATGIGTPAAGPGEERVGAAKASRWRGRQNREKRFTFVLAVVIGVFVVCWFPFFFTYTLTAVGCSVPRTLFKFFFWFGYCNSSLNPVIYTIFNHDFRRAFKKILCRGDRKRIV
Procedure, shortened: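 Membranes from recombinant cells expressing the receptor, in 50 mM Tris-HCl pH 7.4 with 5 mM MgCl2, 1 mM CaCl2, 0.2% BSA; compounds incubated with 2 nM [^3H]MK-912 for 60 min at 25° C. Nonspecific binding defined by 10 μM rauwolscine; filtration, counting; percent inhibition of specific binding, or estimated Ki.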

[3] = molecular target: T3, Human adrenergic α1B receptor (Homo sapiens, UniProt P35368); assay: Radioligand binding, adrenergic α1B (Protocol Group B); conditions: Protocol Group B; for Percentage inhibition of ligand binding, Adrenergic α1B (0.1 μM) / inhibition at 0.1 µM: 0.1 μM compound; for Percentage inhibition of ligand binding, Adrenergic α1B (0.3 μM) / inhibition at 0.3 µM: 0.3 μM compound; for inhibition at 0.1 µM: read-out: Percentage inhibition of ligand binding, Adrenergic α1B (0.1 μM); for inhibition at 0.3 µM: read-out: Percentage inhibition of ligand binding, Adrenergic α1B (0.3 μM)
T3 sequence (P35368 1-520): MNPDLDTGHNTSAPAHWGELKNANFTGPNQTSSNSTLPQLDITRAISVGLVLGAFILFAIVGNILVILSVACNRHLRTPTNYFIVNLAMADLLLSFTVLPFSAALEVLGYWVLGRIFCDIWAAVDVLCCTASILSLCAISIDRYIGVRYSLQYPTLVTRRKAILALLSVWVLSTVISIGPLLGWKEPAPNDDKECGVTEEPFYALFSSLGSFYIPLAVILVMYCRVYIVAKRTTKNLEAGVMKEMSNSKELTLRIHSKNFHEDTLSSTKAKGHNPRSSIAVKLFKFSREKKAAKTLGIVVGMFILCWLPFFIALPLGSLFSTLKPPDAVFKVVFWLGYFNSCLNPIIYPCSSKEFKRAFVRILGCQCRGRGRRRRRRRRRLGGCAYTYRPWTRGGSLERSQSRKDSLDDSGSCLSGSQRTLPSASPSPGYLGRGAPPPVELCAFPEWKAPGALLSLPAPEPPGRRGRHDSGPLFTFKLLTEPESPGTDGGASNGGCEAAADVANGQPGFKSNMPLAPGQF
Procedure, shortened: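 Recombinant human α1B membranes incubated with test compound and 0.3 nM [3H]prazosin, 60 min at 25 °C, in 50 mM Tris-HCl pH 7.4, 10 mM MgCl2, 1 mM EDTA; nonspecific binding with 10 μM prazosin. Filter-bound radioactivity counted; values are % inhibition of specific binding or estimated Ki.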

SMILES	inhibition at 0.01 µM [1] [%]	Percentage inhibition of ligand binding, Adrenergic α2B (30 nM) [1] [%]	Percentage inhibition of ligand binding, Adrenergic α2B (0.1 μM) [1] [%]	Percentage inhibition of ligand binding, Adrenergic α2A (0.1 μM) [2] [%]	Percentage inhibition of ligand binding, Adrenergic α2A (0.3 μM) [2] [%]	Percentage inhibition of ligand binding, Adrenergic α1B (0.1 μM) [3] [%]	Percentage inhibition of ligand binding, Adrenergic α1B (0.3 μM) [3] [%]	inhibition at 0.03 µM [1] [%]	inhibition at 0.1 µM [1] [%]	inhibition at 0.3 µM [2] [%]	Percentage inhibition of ligand binding, Adrenergic α2B (10 nM) [1] [%]	inhibition at 0.1 µM [2] [%]	inhibition at 0.1 µM [3] [%]	inhibition at 0.3 µM [3] [%]
Cc1ccc2c(c1)c1c(n2CC(O)c2ccncc2)CNC2CCCC12 (single isomer, unassigned) [34a]	21	−12	−11	−9	−5	−2	−10	–	–	–	–	–	–	–
Cc1ccc2c(c1)c1c(n2CC(C)(O)c2ccncc2)CC2CCCN2C1 (single isomer, unassigned) [37a]	27	–	–	14	–	26	34	50	69	21	–	–	–	–
OC(Cn1c2c(c3cc(F)cc(F)c31)C1CCCN1CC2)c1ccncc1 (single isomer, unassigned) [144b]	–	100	–	61	–	18	–	–	–	–	–	–	–	–
CN1CCc2c(c3cc(CCO)ccc3n2CC(C)(O)c2cccnc2)C1 (single isomer, unassigned) [139a]	–	31	–	7	–	9	–	–	–	–	–	–	–	–
OC(Cn1c2c(c3cc(F)ccc31)C1CCCN1CC2)c1ccncc1 (single isomer, unassigned) [18a]	–	58	80	−7	38	20	55	–	–	–	41	–	–	–
CC(O)(Cn1c2c(c3cc(F)ccc31)C1CCCN1CC2)c1cccnc1 (stereo not shown) [51b]	–	69	86	13	34	−8	4	–	–	–	45	–	–	–
Cc1ccc2c(c1)c1c(n2CC(C)(O)c2ccncc2)CCN2CCCC12 (single isomer, unassigned) [13c]	–	–	–	11	–	9	28	30	74	21	−1	–	–	–
Cc1cc(F)cc2c3c(n(CC(C)(O)c4ccncc4)c12)CC1CCCN1C3 (single isomer, unassigned) [78a]	–	−1	5	−11	−7	2	12	–	–	–	−1	–	–	–
Cc1ccc2c(c1)c1c(n2CC(C)(O)c2cccnc2)CCN(C)C1CO (single isomer, unassigned) [16b]	–	−11	7	−2	10	−3	5	–	–	–	4	–	–	–
OCc1ccc2c(c1)c1c(n2CC(O)c2ccncc2)CCN2CCCC12 (stereo not shown) [compound 29]	31	–	–	–	–	–	–	66	80	49	–	20	15	46
CC(O)(Cn1c2c(c3cc(Cl)cc(F)c31)CN1CCCC1C2)c1cccnc1 (single isomer, unassigned) [63b]	–	−3	22	0	13	−1	1	–	–	–	−6	–	–	–
CN1CCc2c(c3cc(C(F)(F)F)ccc3n2CC(OC2CCCC2)c2ccncc2)C1 (single isomer, unassigned) [60a]	–	–	–	26	50	12	40	47	72	–	23	–	–	–
Cc1ccc2c(c1)c1c(n2CC(C)(O)c2cccnc2)CCN(CC(F)F)C1 (stereo not shown) [compound 58, 1-(2-(2,2-difluoroethyl)-8-methyl-3,4-dihydro-1H-pyrido[4,3-b]indol-5(2H)-yl)-2-(pyridin-3-yl)propan-2-ol]	-10	–	–	–	–	–	–	-4	-2	-1	–	-6	-6	-4
Cc1ccc2c(c1)c1c(n2CC(C)(O)c2ccncc2)CCN2CCCC12 (single isomer, unassigned) [13d]	–	27	76	3	20	−7	9	–	–	–	7	–	–	–
Cc1ccc2c(c1)c1c(n2CC(C)(O)c2cnc3ccccc3c2)CCN(C)C1 (stereo not shown) [compound 32]	–	34	–	5	31	–	–	–	69	–	14	–	-1	18
